In US20150328191A1, “USE OF PIDOTIMOD TO TREAT PSORIASIS” (POLICHEM S.A., priority 2012, published 2015):
Peptide text beside a SMILES is read from it.

System: psoriatic patients (mild psoriasis)
Assay: Evaluation of pidotimod in psoriatic patients by PASI evaluation; safety also evaluated
Type: in vivo, human
Settings: 800 mg daily oral, 12 weeks
Description: An evaluation of the activity of pidotimod was tested on psoriatic patients, in order to assess the efficacy in terms of improvement of the pathology by means of PASI evaluation. The safety of the treatment was also evaluated. The study was performed in 5 patients (3 males and 2 females, aged between 31-53, mean=42) with a clinical diagnosis of mild psoriasis of at least 6 months. […] The body surface area involvement at the baseline was ≦10% with a PASI value ≦10.
The study product was taken with the composition of the Example 6 at a dosage of two oral vials daily, i.e. 800 mg daily of the active ingredient, taken far from mealtimes.
During the trial, the following visits were performed: • baseline—T0 (before the product use) • intermediate visit—T6 (after 6 weeks of treatment) • final visit—T12 (after 12 weeks of treatment)
No relevant event, which may have interfered to the test results, occurred during the study period.
The efficacy of the product was expressed by mean of values of PASI evaluation, assessing the PASI at the baseline and at the intermediate visit and the final one.

Compound: O=C1CC[C@@H](C(=O)N2CSC[C@H]2C(=O)O)N1 [pidotimod, (4R)-3-(5-oxo-L-prolyl)-1,3-thiazolidine-4-carboxylic acid] (HELM PEPTIDE1{[Glp].[O=C(O)[C@@H]1CSCN1[*:1]]}$$$$V2.0)
- Side effects (5 patients): no side effects were reported
- Tolerability of the treatment (5 patients): very well tolerated
- Student t test p for decrease of the PASI value at T12 (end of treatment) vs. T0 (baseline) (5 patients, statistically significant decrease): < 0.05
- Improvement in the clinical evidences of the illness (all 5 patients): important improvement
